Laboratory results published in ChEMBL document CHEMBL5291721, “A preclinical secondary pharmacology resource illuminates target-adverse drug reaction associations of marketed drugs” (Nat Commun, 2023).

Legend:
D(1A) dopamine receptor [1] = biological target: T1, D(1A) dopamine receptor (Homo sapiens, UniProt P21728); assay type: functional, cell-based
Acetylcholinesterase = Acetylcholinesterase (Homo sapiens, UniProt P22303); assay type: functional
[2] = biological target: T2, Muscarinic acetylcholine receptor M4 (Homo sapiens, UniProt P08173)
T2 sequence (P08173 whole entry): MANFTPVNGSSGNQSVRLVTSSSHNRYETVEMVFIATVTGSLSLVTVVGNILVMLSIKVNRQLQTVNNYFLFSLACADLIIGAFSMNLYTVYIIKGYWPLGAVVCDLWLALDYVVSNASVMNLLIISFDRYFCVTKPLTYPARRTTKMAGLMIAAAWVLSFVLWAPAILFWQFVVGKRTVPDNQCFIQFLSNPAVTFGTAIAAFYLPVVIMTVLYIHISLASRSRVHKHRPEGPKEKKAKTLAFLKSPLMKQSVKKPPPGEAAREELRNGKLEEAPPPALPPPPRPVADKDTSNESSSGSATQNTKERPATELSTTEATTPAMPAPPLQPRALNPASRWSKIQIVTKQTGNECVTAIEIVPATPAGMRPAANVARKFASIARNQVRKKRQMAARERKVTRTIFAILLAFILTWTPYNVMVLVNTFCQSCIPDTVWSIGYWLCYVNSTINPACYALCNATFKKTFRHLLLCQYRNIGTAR

D(1B) dopamine receptor = D(1B) dopamine receptor (Homo sapiens, UniProt P21918)
D(1A) dopamine receptor [3] = biological target: T1, D(1A) dopamine receptor
Histamine H1 receptor = Histamine H1 receptor (Homo sapiens, UniProt P35367); assay type: functional, cell-based
[4] = biological target: T3, Prostaglandin G/H synthase 1 (Rattus norvegicus, UniProt Q63921); assay type: functional
T3 sequence (Q63921 whole entry): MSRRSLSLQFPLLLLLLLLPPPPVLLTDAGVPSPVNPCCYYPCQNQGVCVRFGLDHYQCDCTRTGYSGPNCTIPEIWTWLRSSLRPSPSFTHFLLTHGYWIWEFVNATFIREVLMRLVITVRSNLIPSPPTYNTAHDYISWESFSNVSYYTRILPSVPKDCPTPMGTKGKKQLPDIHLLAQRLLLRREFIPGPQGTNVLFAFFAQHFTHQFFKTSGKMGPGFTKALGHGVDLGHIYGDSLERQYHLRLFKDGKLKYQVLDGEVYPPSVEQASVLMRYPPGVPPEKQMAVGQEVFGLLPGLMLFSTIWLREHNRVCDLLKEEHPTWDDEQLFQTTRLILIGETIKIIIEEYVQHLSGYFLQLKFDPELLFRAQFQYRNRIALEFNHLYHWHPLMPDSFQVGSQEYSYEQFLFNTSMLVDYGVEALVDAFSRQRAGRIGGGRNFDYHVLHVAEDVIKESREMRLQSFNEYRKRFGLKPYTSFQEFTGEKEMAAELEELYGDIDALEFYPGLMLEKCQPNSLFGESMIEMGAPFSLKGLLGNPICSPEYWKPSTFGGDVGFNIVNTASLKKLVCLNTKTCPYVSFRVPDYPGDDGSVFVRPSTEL

[5] = biological target: T4, Oxysterols receptor LXR-beta (Homo sapiens, UniProt P55055); assay type: functional
T4 sequence (P55055 whole entry): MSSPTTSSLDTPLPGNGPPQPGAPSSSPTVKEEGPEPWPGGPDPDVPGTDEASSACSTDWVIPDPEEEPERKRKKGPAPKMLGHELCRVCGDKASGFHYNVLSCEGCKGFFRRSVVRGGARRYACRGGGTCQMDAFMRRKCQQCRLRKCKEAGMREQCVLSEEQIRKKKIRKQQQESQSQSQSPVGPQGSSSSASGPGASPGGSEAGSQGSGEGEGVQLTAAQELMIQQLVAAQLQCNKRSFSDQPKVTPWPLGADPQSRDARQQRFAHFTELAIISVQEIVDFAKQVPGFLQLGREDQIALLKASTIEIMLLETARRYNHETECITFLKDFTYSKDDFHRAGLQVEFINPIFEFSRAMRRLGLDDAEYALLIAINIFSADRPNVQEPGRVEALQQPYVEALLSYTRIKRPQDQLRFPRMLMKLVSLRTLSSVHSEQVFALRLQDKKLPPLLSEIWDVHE

[6] = biological target: T5, Oxysterols receptor LXR-alpha (Homo sapiens, UniProt Q13133); assay type: functional
T5 sequence (Q13133 whole entry): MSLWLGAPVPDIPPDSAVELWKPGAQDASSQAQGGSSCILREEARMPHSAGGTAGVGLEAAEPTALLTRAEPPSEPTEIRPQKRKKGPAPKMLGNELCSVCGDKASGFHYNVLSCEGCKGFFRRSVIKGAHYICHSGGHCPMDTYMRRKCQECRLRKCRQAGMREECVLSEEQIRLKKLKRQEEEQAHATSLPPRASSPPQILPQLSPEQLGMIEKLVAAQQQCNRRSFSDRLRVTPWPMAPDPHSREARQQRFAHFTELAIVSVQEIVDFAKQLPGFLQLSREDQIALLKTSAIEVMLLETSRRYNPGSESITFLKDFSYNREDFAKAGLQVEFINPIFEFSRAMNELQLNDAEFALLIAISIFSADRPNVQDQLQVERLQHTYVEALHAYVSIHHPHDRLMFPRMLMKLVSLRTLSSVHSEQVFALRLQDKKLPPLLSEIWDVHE

[7] = biological target: T6, Nuclear receptor subfamily 1 group I member 3 (Homo sapiens, UniProt Q14994); assay type: functional
T6 sequence (Q14994 whole entry): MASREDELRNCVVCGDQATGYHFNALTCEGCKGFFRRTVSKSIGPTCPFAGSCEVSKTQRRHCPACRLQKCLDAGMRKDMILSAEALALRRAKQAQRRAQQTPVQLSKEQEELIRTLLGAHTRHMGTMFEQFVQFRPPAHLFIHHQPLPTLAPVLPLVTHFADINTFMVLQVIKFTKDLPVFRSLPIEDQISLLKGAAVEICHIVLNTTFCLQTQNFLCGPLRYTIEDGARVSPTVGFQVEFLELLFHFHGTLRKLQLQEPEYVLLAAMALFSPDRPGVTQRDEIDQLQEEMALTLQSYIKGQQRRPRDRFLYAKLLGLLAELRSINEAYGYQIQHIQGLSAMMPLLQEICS
Further: assay procedure not described here.

T1 sequence (P21728 whole entry): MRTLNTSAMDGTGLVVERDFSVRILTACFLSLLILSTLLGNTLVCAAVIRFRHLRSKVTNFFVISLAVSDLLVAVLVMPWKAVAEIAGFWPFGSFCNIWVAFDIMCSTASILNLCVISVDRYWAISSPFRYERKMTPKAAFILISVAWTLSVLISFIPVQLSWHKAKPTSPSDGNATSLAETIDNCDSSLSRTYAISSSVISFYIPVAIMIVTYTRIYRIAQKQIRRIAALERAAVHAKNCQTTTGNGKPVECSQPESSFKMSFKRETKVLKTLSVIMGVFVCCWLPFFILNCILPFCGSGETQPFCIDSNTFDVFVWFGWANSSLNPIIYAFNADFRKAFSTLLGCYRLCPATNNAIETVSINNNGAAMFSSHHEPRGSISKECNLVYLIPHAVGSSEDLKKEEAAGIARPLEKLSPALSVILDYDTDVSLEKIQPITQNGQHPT
Chain of Histamine H1 receptor (P35367 whole entry): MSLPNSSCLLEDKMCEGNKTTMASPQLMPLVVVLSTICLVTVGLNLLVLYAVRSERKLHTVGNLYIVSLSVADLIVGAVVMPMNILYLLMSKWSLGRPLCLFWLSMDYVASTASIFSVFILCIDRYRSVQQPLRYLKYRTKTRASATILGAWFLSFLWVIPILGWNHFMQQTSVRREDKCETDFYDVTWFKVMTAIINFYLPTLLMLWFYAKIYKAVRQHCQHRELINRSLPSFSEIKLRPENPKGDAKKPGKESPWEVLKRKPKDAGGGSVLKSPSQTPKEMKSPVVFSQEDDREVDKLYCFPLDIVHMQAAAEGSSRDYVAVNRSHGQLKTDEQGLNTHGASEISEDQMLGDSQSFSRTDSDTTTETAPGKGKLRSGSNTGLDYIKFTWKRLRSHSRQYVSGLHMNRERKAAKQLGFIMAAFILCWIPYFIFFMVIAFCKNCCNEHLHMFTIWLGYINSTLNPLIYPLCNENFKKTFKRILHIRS
Chain of D(1B) dopamine receptor (P21918 whole entry): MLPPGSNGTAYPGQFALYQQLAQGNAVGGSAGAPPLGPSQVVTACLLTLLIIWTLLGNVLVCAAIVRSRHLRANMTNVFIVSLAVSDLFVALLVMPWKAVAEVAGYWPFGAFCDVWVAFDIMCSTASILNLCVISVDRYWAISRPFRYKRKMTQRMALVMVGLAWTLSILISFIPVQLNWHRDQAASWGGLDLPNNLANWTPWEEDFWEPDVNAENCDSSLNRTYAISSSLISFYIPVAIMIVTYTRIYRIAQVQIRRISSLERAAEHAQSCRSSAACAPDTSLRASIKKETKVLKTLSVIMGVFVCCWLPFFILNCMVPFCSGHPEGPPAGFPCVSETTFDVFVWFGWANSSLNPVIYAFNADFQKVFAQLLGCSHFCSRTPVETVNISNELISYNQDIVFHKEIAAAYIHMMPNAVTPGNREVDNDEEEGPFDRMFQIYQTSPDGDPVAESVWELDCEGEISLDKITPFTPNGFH
Chain of Acetylcholinesterase (P22303 whole entry): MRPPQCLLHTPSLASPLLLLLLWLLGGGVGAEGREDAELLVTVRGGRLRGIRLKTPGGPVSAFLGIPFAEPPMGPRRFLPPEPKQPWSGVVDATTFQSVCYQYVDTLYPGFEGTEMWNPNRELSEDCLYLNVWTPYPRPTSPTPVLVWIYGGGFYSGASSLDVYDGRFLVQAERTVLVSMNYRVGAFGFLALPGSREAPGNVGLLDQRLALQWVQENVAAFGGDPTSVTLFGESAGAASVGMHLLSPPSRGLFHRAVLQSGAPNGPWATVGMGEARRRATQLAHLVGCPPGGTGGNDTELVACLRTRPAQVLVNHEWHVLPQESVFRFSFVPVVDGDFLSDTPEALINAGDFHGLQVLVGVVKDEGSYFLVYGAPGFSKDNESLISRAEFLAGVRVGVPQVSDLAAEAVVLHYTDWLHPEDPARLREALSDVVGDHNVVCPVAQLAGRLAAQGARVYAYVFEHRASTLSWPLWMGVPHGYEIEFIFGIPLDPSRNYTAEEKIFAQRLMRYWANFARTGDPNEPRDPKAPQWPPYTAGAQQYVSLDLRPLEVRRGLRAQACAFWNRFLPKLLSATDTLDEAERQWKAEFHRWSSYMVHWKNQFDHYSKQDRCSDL

CO/N=C(\C(=O)N[C@@H]1C(=O)N2C(C(=O)[O-])=C(C[N+]3(C)CCCC3)CS[C@H]12)c1csc(N)n1
AC50 (D(1A) dopamine receptor [1]): > 300 µM | AC50 (Acetylcholinesterase): > 300 µM

CCOC(=O)[C@H](CCc1ccccc1)N[C@@H](C)C(=O)N1CCC[C@H]1C(=O)O
AC50 [2]: > 10 µM | AC50 (D(1B) dopamine receptor): > 10 µM

Nc1nc(N)c2nc(-c3ccccc3)c(N)nc2n1
AC50 [2]: > 10 µM | AC50 (D(1B) dopamine receptor): > 10 µM | AC50 (D(1A) dopamine receptor [3]): > 30 µM

CC(=O)c1ccc2c(c1)N(CCCN1CCN(CCO)CC1)c1ccccc1S2 [ACETOPHENAZINE]
AC50 (D(1A) dopamine receptor [1]): 1.11 µM | AC50 (D(1A) dopamine receptor [3]): 0.1 µM

Oc1ncnc2[nH]ncc12 [ALLOPURINOL]
AC50 (D(1A) dopamine receptor [3]): > 30 µM

COC(=O)[C@@H]1CC2=CC(=O)CC[C@]2(C)[C@@]23O[C@@H]2C[C@@]2(C)[C@@H](CC[C@@]24CCC(=O)O4)[C@H]13 [EPLERENONE]
AC50 (D(1A) dopamine receptor [1]): > 30 µM | AC50 (Histamine H1 receptor): > 30 µM | AC50 [4]: > 30 µM | AC50 (Acetylcholinesterase): > 30 µM

NC(N)=Nc1nc(CSCCC(N)=NS(N)(=O)=O)cs1 [FAMOTIDINE]
AC50 [2]: > 10 µM | AC50 (D(1B) dopamine receptor): > 10 µM

CC(C)C(=O)Nc1ccc([N+](=O)[O-])c(C(F)(F)F)c1 [FLUTAMIDE]
AC50 (D(1A) dopamine receptor [3]): > 30 µM

COc1ccc2c(c1)C(=O)N(CCc1ccc(S(=O)(=O)NC(=O)NC3CCCCC3)cc1)C(=O)C2(C)C [GLIQUIDONE]
AC50 [5]: > 30 µM | AC50 [6]: 6.3 µM | AC50 [7]: 4.8 µM

NS(=O)(=O)c1cc2c(cc1Cl)NCNS2(=O)=O [HYDROCHLOROTHIAZIDE]
AC50 [2]: > 10 µM | AC50 (D(1B) dopamine receptor): > 10 µM

CC(C)Cc1ccc(CC(=O)O)cc1 [IBUFENAC]
AC50 (D(1A) dopamine receptor [1]): > 30 µM | AC50 (Acetylcholinesterase): > 30 µM

CC(C)NNC(=O)c1ccncc1 [IPRONIAZID]
AC50 (D(1A) dopamine receptor [1]): > 30 µM | AC50 (Acetylcholinesterase): > 30 µM

CC(C(=O)O)c1ccc(N2CC=CC2)c(Cl)c1 (stereo unspecified) [PIRPROFEN]
AC50 (Histamine H1 receptor): > 30 µM

NC(=O)c1cnccn1 [PYRAZINAMIDE]
AC50 (D(1A) dopamine receptor [3]): > 30 µM

Cc1ccc(C(=O)c2cc(O)c(O)c([N+](=O)[O-])c2)cc1 [TOLCAPONE]
AC50 [7]: 13 µM

O=C(CCCCCCC(=O)Nc1ccccc1)NO [VORINOSTAT]
AC50 [2]: > 10 µM | AC50 (Histamine H1 receptor): > 30 µM
